Source: US20240285627A1, “DRUG COMBINATION OF FAK INHIBITOR AND IMMUNOGENIC CELL DEATH INDUCER AND USE THEREOF” (INXMED (NANJING) CO., LTD., priority 2022, published 2024)

How the values were obtained:
[1] = system: Mouse colon cancer CT26 cells; experiment: CT26 cells with IN10018 and MRTX1133: microscope and flow cytometry for CRT / Annexin V (Example 4); assay type: cell-based; conditions: CT26, 48 hours; IN10018 5 μM, MRTX1133 6 μM
Protocol: (§1) Mouse colon cancer CT26 cells (Insitute of Biochemistry and Cell Biology) were cultured with RPMI-1640 (Shanghai Basalmedia, classification number: L210KJ, batch number: F210916)+10% FBS (Gibco, classification number: 10099-141c, batch number: 2158737cp) and passaged twice. When the cells were in good condition, the culture solution was placed in a 24-well plate. After the cells were spread for 24 hours, four groups were set up, wherein the first group was a control group, and the culture medium was added; the second group was IN10018 with a concentration of 5 μM; the third group was MRTX1133 (SuperLan Chemical Co., Ltd., classification number: P2621928-55-8, batch number: 131005) with a concentration of 6 μM; and the fourth group was IN10018 (5 μM) combined with MRTX1133 (6 μM). The drugs were mixed and the mixture was cultured in a 5% CO2 incubator at 37° C. for 48 hours.
(§2) After 48 hours of drug action, the cells were observed under a microscope and photographed, and the photos were kept. Then the cells were collected, subjected to flow analysis, and washed twice with flow buffer (PBS+2% FBS). 0.5 μl of AF647 anti-Calreticulin antibody (abcam, classification number: ab196159, batch number: CR33676773) was added to each well and fully mixed. […] The mixture was cultured at room temperature in the dark for 15 minutes, and then analyzed by flow cytometry.

[2] = system: Mouse lung cancer KPL; experiment: KPL cells with IN10018 and MRTX1133: microscope and flow cytometry for CRT / Annexin V (Example 6); assay type: cell-based; conditions: 48 hours, IN10018 10 μM, MRTX1133 15 μM
Protocol: as §1, with “Mouse lung” for “Mouse colon”, “cancer KPL” for “cancer CT26 cells”, “of 10” for “of 5”, “of 15” for “of 6”, “IN10018 (10” for “IN10018 (5”, “MRTX1133 (15” for “MRTX1133 (6”
as §2

[3] = system: mouse colon cancer CT26 cells allograft tumor; experiment: In vivo anti-tumor efficacy, BALB/c mouse subcutaneous allograft tumor model of CT26 cells (Example 9)
Protocol: Mouse colorectal cancer cell CT26 (from Nanjing Kebai Biotechnology Co., Ltd., article number: CBP60043) was maintained and passaged by InxMed (Nanjing) Co., Ltd. Cells were cultured in monolayer in vitro, and the culture conditions were RPMI-1640 medium with 10% fetal bovine serum and 37° C. 5% CO2 incubator. Trypsin-EDTA was used for routine digestion and passage two or three times a week. When the cells were in exponential growth period and the saturation reached 80%-90%, the cells were collected, counted and inoculated.
0.1 mL of cell suspension containing 3×10^5 cells was subcutaneously inoculated on the right back of each mouse. When the tumor volume reached about ˜57 mm^3 (13th day after cell inoculation), mice were randomly divided into groups according to the tumor volume and administered.
The assay index was to investigate whether the tumor growth is inhibited, delayed or cured. The diameter of tumor was measured with vernier caliper, 2˜3 times a week. The formula for calculating the tumor volume is: V=0.5×a×b^2, where a and b represent the long and short diameters of the tumor respectively.
The anti-tumor effect of the compound was evaluated by TGI (%), which reflected the tumor growth inhibition rate. According to the tumor volume on the first day after grouping, the tumor growth inhibition rate TGI (%) was calculated according to the following formula: […]
Statistical analysis was based on the tumor volume at the end of the assay and analyzed by Prism Graphpad software. The comparison between multiple groups was analyzed by Two-way ANOVA and Fisher's LSD test. P<0.05 is considered to have significant difference.

Compound | cell state under a microscope [1] | cell state under a microscope [2] | Tumor volume on Day 0 ([3]; Day 0, at grouping, mean ± SD) [mm^3] | TGI (%) ([3]; Day 14, MRTX1133 5 mg/kg IP QD, IN10018 25 mg/kg PO QD, TIGIT 3 mg/kg IP BIW) | Tumor volume on Day 14 ([3]; Day 14 after group administration, MRTX1133 5 mg/kg IP QD, IN10018 25 mg/kg PO QD, TIGIT 3 mg/kg IP BIW, mean ± SD) [mm^3] | Tumor volume on Day 16 ([3]; Day 16 after group administration, MRTX1133 5 mg/kg IP QD, IN10018 25 mg/kg PO QD, TIGIT 3 mg/kg IP BIW, mean ± SD) [mm^3]
COc1cc(C(=O)NC2CCN(C)CC2)c(F)cc1Nc1ncc(C(F)(F)F)c(Oc2cccc3c2C(=O)N(C)C3)n1 [IN10018] | good | good |  |  |  | 
C#Cc1c(F)ccc2cc(O)cc(-c3ncc4c(N5CC6CCC(C5)N6)nc(OC[C@@]56CCCN5C[C@H](F)C6)nc4c3F)c12 [MRTX1133] | poor | poor | 57.4 ± 10.8 | 63.2 | 1067.8±302.1 | 1672.1±548.1
